Test system: COV434 cells
Test: NAD cell assay (NAD cycling method)
Type: cell-based
Settings: cellular NAD level, 200 uM for 4 hr, normalised to protein, mole per mole comparison with NaR parent
Method: NAD levels were assayed based on the NAD cycling method of Zhu and Rand, PLoS One (2012), herein incorporated by reference. COV434 cells were maintained in 6 well plates and treated with the indicated compounds at a concentration of 200 uM for 4 hr. Media was removed, plates were washed in cold PBS and cells were scraped down in NAD extraction buffer containing 10 mM nicotinamide, 50 mM Tris HCl, 0.1% Triton X-100. Cells were homogenised by sonication for 5 seconds, and samples were centrifuged at 7,000 g for 5 min at 4 degrees. Aliquots were taken for later protein assay, and samples were then passed through 10 kDa amicon filters at 14,000 g, 30 min at 4 degrees to remove proteins from the sample. Each sample was measured in technical triplicate, with 25 μL sample added to 100 μL ADH cycling mix (0.2 mg/ml alcohol dehydrogenase enzyme, 2% ethanol, 100 mM Tris pH 8.5). Samples were allowed to cycle for 10 min at room temperature, followed by 50 μL addition of an MTT/PMS solution (0.1 mM phenazine methosulfate, 0.8 mM 3(4,5-Dimethylthiazol-2-yl)-2,5-diphenyltetrazolium bromide), 100 mM Tris-HCl pH 8.5). Plates were then incubated for 15 min and absorbance was measured at 570 nm. NAD concentrations were extrapolated from a standard curve, and normalised to protein concentrations determined by BCA protein assay.
The adjusted fold increase is obtained through a direct comparison on a mole per mole basis between the compared salt and its parent counterpart. In other words, the instant compounds derived from NaR parent molecule will only have their NAD activity level measured against NaR based on the same amount (mole) of salt tested in the cell. For example, the fold increase of compound I-002 is based on the NAD activity observed in a direct comparison for the same amount of mole in the cell and that of the NaR parent. Similarly, the fold increase of i-003 is based on the direct comparison with NaR.

Point of comparison: “(S)-2-Ammonio-3-(1H-indol-3-yl)propanoate compound with 1-((2R,3R,4S,5R)-3,4-dihydroxy-5-(hydroxymethyl)tetrahydrofuran-2-yl)pyridine-1-ium-3-carboxylate (1:1) [Compound I-003]”, “Fold increase adjusted for MW (compared to parent molecule)” value 1.76 fold. Against it:
- O=C([O-])c1ccc[n+]([C@@H]2O[C@H](CO)[C@@H](O)[C@H]2O)c1 [NaR, reference compound] — lower, 1.0 fold
- (2S,3S)-2-Ammonio-3-methylpentanoate compound with 1-((2R,3R,4S,5R)-3,4-dihydroxy-5-(hydroxymethyl)tetrahydrofuran-2-yl)pyridine-1-ium-3-carboxylate (1:1) [Compound I-002] — lower, 1.34 fold
